Reference: paper PMC6152724, “Secondary Sulfonamides as Effective Lactoperoxidase Inhibitors” (Molecules : A Journal of Synthetic Chemistry and Natural …, 2017)

Target: T1, LPO purified from bovine milk (Bos taurus, UniProt P80025)
T1 construct: from tissue; host or cells: fresh bovine milk
Experiment: LPO inhibition assay (ABTS oxidation by H2O2, absorbance at 412 nm; Lineweaver–Burk plots)
Assay type: biochemical
Settings: for IC50: from activity (%)-[inhibitor] regression graphs, ABTS substrate; for Inhibition Type: with respect to ABTS substrate, from Lineweaver–Burk plots
Method: LPO activities were determined by the procedure of Shindler and Bardsley with slight modification. This method is based on the oxidation of chromogenic substrate 2,2′-azino-bis(3-ethylbenzothiazoline-6-sulfonic acid) (ABTS) by hydrogen peroxide (H2O2), which results in a product which had absorbance at 412 nm.
The effects of secondary sulfonamide derivatives (4a–8h) on LPO purified from fresh bovine milk by affinity chromatography technique were previously determined. In our study, LPO activity was measured in the presence of different concentrations of secondary sulfanilamide derivatives (4a–8h). A control sample without secondary sulfonamide was taken as 100%. An activity (%)-[Secondary sulfonamide] plot was drawn. For the determination of the inhibition constant (Ki) values, three different secondary sulfonamide derivative (4a–8h) concentrations were used. Additionally, ABTS was used as a substrate at five different concentrations. Lineweaver–Burk plots (1/V-1/[ABTS]) were obtained for secondary sulfonamide; the Ki and the inhibition type were calculated from these plots. The data obtained were analysed by t-test and the results are given as Means ± SD.

[1] = LPO purified from bovine milk, Lineweaver–Burk plots, three inhibitor and five ABTS concentrations, Means ± SD
[2] = bovine milk LPO, values restated in text in nM

Compound	Ki [1]	IC50 (LPO purified from bovine milk)	Inhibition Type	Ki [2]
CC(=O)Oc1cc(C(=O)Nc2ccc(S(=O)(=O)Nc3ccccn3)cc2)cc(OC(C)=O)c1OC(C)=O [6d, N-(sulfapyridine)-3,4,5-triacetoxybenzamide]	1390 ± 150 nM	1.56 µM	Non-competitive	
Cc1ccnc(NS(=O)(=O)c2ccc(N)cc2)n1 [4g, Sulfamerazine, reference compound]	20500 ± 2140 nM	18.7 µM	Non-competitive	
CC(=O)Oc1cc(C(=O)Nc2ccc(S(=O)(=O)Nc3onc(C)c3C)cc2)cc(OC(C)=O)c1OC(C)=O [6e, N-(sulfisoxazole)-3,4,5-triacetoxybenzamide]	1070 ± 20 nM	2.03 µM	Competitive	
Cc1nnc(NS(=O)(=O)c2ccc(N)cc2)s1 [4f, Sulfamethizole, reference compound]	21200 ± 5660 nM	115 µM	Non-competitive	
CC(=O)Oc1cc(C(=O)Nc2ccc(S(=O)(=O)Nc3nnc(C)s3)cc2)cc(OC(C)=O)c1OC(C)=O [6f, N-(sulfamethizole)-3,4,5-triacetoxybenzamide]	8550 ± 1450 nM	6.66 µM	Non-competitive	
Nc1ccc(S(N)(=O)=O)cc1 [4h, Sulfanilamide, reference compound]	35700 ± 4880 nM	8.48 µM	Competitive	
CC(=O)Oc1cc(C(=O)Nc2ccc(S(=O)(=O)Nc3nc(C)cc(C)n3)cc2)cc(OC(C)=O)c1OC(C)=O [6c, N-(sulfamethazine)-3,4,5-triacetoxybenzamide]	152000 ± 48700 nM	139 µM	Non-competitive	
CC(=O)Oc1ccc(C(=O)Nc2ccc(S(=O)(=O)Nc3ncccn3)cc2)cc1 [5b, N-(sulfadiazine)-p-acetoxybenzamide]	26 ± 4 nM	0.015 µM	Non-competitive	260 nM
CC(=O)Oc1cc(C(=O)Nc2ccc(S(=O)(=O)Nc3nccs3)cc2)cc(OC(C)=O)c1OC(C)=O [6a, N-(sulfathiazole)-3,4,5-triacetoxybenzamide]	1.1 nM	0.000656 µM	Non-competitive	
NS(=O)(=O)c1ccc(NC(=O)c2cc(O)c(O)c(O)c2)cc1 [8h, N-(sulfanilamide)-3,4,5-trihydroxybenzamide]	3100 ± 578 nM	1.78 µM	Non-competitive	
CC(=O)Oc1cc(C(=O)Nc2ccc(S(=O)(=O)Nc3nccc(C)n3)cc2)cc(OC(C)=O)c1OC(C)=O [6g, N-(sulfamerazine)-3,4,5-triacetoxybenzamide]	1490 ± 280 nM	1.28 µM	Non-competitive	
CC(=O)Oc1cc(C(=O)Nc2ccc(S(=O)(=O)Nc3ncccn3)cc2)cc(OC(C)=O)c1OC(C)=O [6b, N-(sulfadiazine)-3,4,5-triacetoxybenzamide]	2900 ± 1130 nM	13.9 µM	Competitive	
Nc1ccc(S(=O)(=O)Nc2ccccn2)cc1 [4d, Sulfapyridine, reference compound]	65000 ± 3610 nM	227 µM	Competitive	
Cc1noc(NS(=O)(=O)c2ccc(N)cc2)c1C [4e, Sulfisoxazole, reference compound]	183000 ± 34100 nM	222 µM	Non-competitive	
CC(=O)Oc1ccc(C(=O)Nc2ccc(S(N)(=O)=O)cc2)cc1 [5h, N-(sulfanilamide)-p-acetoxybenzamide]	2290 ± 1020 nM	3.05 µM	Non-competitive	
CC(=O)Oc1ccc(C(=O)Nc2ccc(S(=O)(=O)Nc3onc(C)c3C)cc2)cc1 [5e, N-(sulfisoxazole)-p-acetoxybenzamide]	934 ± 357 nM	3.03 µM	Competitive	
CC(=O)Oc1ccc(C(=O)Nc2ccc(S(=O)(=O)Nc3nc(C)cc(C)n3)cc2)cc1 [5c, N-(sulfamethazine)-p-acetoxybenzamide]	8 ± 3 nM	0.01 µM	Competitive	80 nM
CC(=O)Oc1ccc(C(=O)Nc2ccc(S(=O)(=O)Nc3nccs3)cc2)cc1 [5a, N-(sulfathiazole)-p-acetoxybenzamide]	56100 ± 23600 nM	99 µM	Non-competitive	
CC(=O)Oc1ccc(C(=O)Nc2ccc(S(=O)(=O)Nc3nnc(C)s3)cc2)cc1 [5f, N-(sulfamethizole)-p-acetoxybenzamide]	324 ± 115 nM	0.238 µM	Non-competitive	
CC(=O)Oc1cc(C(=O)Nc2ccc(S(N)(=O)=O)cc2)cc(OC(C)=O)c1OC(C)=O [6h, N-(sulfanilamide)-3,4,5-triacetoxybenzamide]	2290 ± 980 nM	3.05 µM	Non-competitive	
Nc1ccc(S(=O)(=O)Nc2nccs2)cc1 [4a, Sulfathiazole, reference compound]	38400 ± 6060 nM	231 µM	Non-competitive	
CC(=O)Oc1ccc(C(=O)Nc2ccc(S(=O)(=O)Nc3nccc(C)n3)cc2)cc1 [5g, N-(sulfamerazine)-p-acetoxybenzamide]	13400 ± 6190 nM	3.94 µM	Competitive	
Nc1ccc(S(=O)(=O)Nc2ncccn2)cc1 [4b, Sulfadiazine, reference compound]	90700 ± 2520 nM	92.2 µM	Non-competitive	
Cc1cc(C)nc(NS(=O)(=O)c2ccc(N)cc2)n1 [4c, Sulfamethazine, reference compound]	198000 ± 24500 nM	346 µM	Non-competitive	
CC(=O)Oc1ccc(C(=O)Nc2ccc(S(=O)(=O)Nc3ccccn3)cc2)cc1 [5d, N-(sulfapyridine)-p-acetoxybenzamide]	49100 ± 20000 nM	10 µM	Competitive	

Continued, in another order:

Ki [1]	IC50 (LPO purified from bovine milk)	Inhibition Type	Compound	Ki [2]
293000 ± 62000 nM	173 µM	Non-competitive	Cc1nnc(NS(=O)(=O)c2ccc(NC(=O)c3cc(O)c(O)c(O)c3)cc2)s1 [8f, N-(sulfamethizole)-3,4,5-trihydroxybenzamide]	
1410 ± 130 nM	2.96 µM	Competitive	O=C(Nc1ccc(S(=O)(=O)Nc2ccccn2)cc1)c1ccc(O)cc1 [7d, N-(sulfapyridine)-p-hydroxybenzamide]	
44 ± 22 nM	0.04 µM	Noncompetitive	O=C(Nc1ccc(S(=O)(=O)Nc2ncccn2)cc1)c1ccc(O)cc1 [7b, N-(sulfadiazine)-p-hydroxybenzamide]	
387 ± 150 nM	0.799 µM	Competitive	Cc1nnc(NS(=O)(=O)c2ccc(NC(=O)c3ccc(O)cc3)cc2)s1 [7f, N-(sulfamethizole)-p-hydroxybenzamide]	
1290 ± 465 nM	0.715 µM	Non-competitive	O=C(Nc1ccc(S(=O)(=O)Nc2ncccn2)cc1)c1cc(O)c(O)c(O)c1 [8b, N-(sulfadiazine)-3,4,5-trihydroxybenzamide]	
25 ± 10 nM	0.014 µM	Competitive	O=C(Nc1ccc(S(=O)(=O)Nc2nccs2)cc1)c1cc(O)c(O)c(O)c1 [8a, N-(sulfathiazole)-3,4,5-trihydroxybenzamide]	
217 ± 99 nM	0.285 µM	Non-competitive	NS(=O)(=O)c1ccc(NC(=O)c2ccc(O)cc2)cc1 [7h, N-(sulfanilamide)-p-hydroxybenzamide]	
6850 ± 1810 nM	15.1 µM	Non-competitive	O=C(Nc1ccc(S(=O)(=O)Nc2nccs2)cc1)c1ccc(O)cc1 [7a, N-(sulfathiazole)-p-hydroxybenzamide]	
3940 ± 1100 nM	1.76 µM	Non-competitive	Cc1ccnc(NS(=O)(=O)c2ccc(NC(=O)c3ccc(O)cc3)cc2)n1 [7g, N-(sulfamerazine)-p-hydroxybenzamide]	
5850 ± 1280 nM	10.2 µM	Competitive	O=C(Nc1ccc(S(=O)(=O)Nc2ccccn2)cc1)c1cc(O)c(O)c(O)c1 [8d, N-(sulfapyridine)-3,4,5-trihydroxybenzamide]	
3870 ± 430 nM	1.48 µM	Non-competitive	Cc1ccnc(NS(=O)(=O)c2ccc(NC(=O)c3cc(O)c(O)c(O)c3)cc2)n1 [8g, N-(sulfamerazine)-3,4,5-trihydroxybenzamide]	
484 ± 146 nM	0.426 µM	Non-competitive	Cc1cc(C)nc(NS(=O)(=O)c2ccc(NC(=O)c3ccc(O)cc3)cc2)n1 [7c, N-(sulfamethazine)-p-hydroxybenzamide]	
1440 ± 520 nM	1.99 µM	Competitive	Cc1noc(NS(=O)(=O)c2ccc(NC(=O)c3cc(O)c(O)c(O)c3)cc2)c1C [8e, N-(sulfisoxazole)-3,4,5-trihydroxybenzamide]	
15100 ± 3900 nM	10.8 µM	Non-competitive	Cc1noc(NS(=O)(=O)c2ccc(NC(=O)c3ccc(O)cc3)cc2)c1C [7e, N-(sulfisoxazole)-p-hydroxybenzamide]	
2170 ± 880 nM	2.53 µM	Competitive	Cc1cc(C)nc(NS(=O)(=O)c2ccc(NC(=O)c3cc(O)c(O)c(O)c3)cc2)n1 [8c, N-(sulfamethazine)-3,4,5-trihydroxybenzamide]	
